PubChem BioAssay (NCI)
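1) Cells in 96-well plates. 2) Compound, 48 h, 5 concentrations. 3) Linear interpolation between surrounding doses. 4) Unreached endpoint = highest concentration. TGI marks complete inhibition of growth.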

Assays:
Experiment in all cases: NCI tumour cell line growth inhibition, 48 h
NCI-H522 lung = test system: NCI-H522 lung
OVCAR-4 ovarian = test system: OVCAR-4 ovarian
SK-OV-3 ovarian = test system: SK-OV-3 ovarian
CCRF-CEM leukemia = test system: CCRF-CEM leukemia
UACC-257 melanoma = test system: UACC-257 melanoma
LXFL 529 NSCLC = test system: LXFL 529 NSCLC
SF-295 CNS = test system: SF-295 CNS
ACHN renal = test system: ACHN renal
NCI-H226 lung = test system: NCI-H226 lung
786-0 renal = test system: 786-0 renal
RXF 393 renal = test system: RXF 393 renal
HCC-2998 colon = test system: HCC-2998 colon
M19-MEL melanoma = test system: M19-MEL melanoma
OVCAR-8 ovarian = test system: OVCAR-8 ovarian
RXF-631 renal = test system: RXF-631 renal
XF 498 CNS = test system: XF 498 CNS
DLD-1 colon = test system: DLD-1 colon
HCT-116 colon = test system: HCT-116 colon
NCI-H460 lung = test system: NCI-H460 lung
HT29 colon = test system: HT29 colon
UO-31 renal = test system: UO-31 renal
SK-MEL-2 melanoma = test system: SK-MEL-2 melanoma
SNB-75 CNS = test system: SNB-75 CNS
U251 CNS = test system: U251 CNS
MALME-3M melanoma = test system: MALME-3M melanoma
CAKI-1 renal = test system: CAKI-1 renal
KM20L2 colon = test system: KM20L2 colon
SN12C renal = test system: SN12C renal
HOP-62 NSCLC = test system: HOP-62 NSCLC
NCI-H23 lung = test system: NCI-H23 lung
SR leukemia = test system: SR leukemia
KM12 colon = test system: KM12 colon
SW-620 colon = test system: SW-620 colon
DMS 273 small cell lung = test system: DMS 273 small cell lung
SNB-19 CNS = test system: SNB-19 CNS
OVCAR-3 ovarian = test system: OVCAR-3 ovarian
HOP-92 NSCLC = test system: HOP-92 NSCLC
EKVX NSCLC = test system: EKVX NSCLC
UACC-62 melanoma = test system: UACC-62 melanoma
OVCAR-5 ovarian = test system: OVCAR-5 ovarian
A498 renal = test system: A498 renal
M14 melanoma = test system: M14 melanoma
SNB-78 CNS = test system: SNB-78 CNS
K-562 leukemia = test system: K-562 leukemia
MOLT-4 leukemia = test system: MOLT-4 leukemia
SF-268 CNS = test system: SF-268 CNS
LOX IMVI melanoma = test system: LOX IMVI melanoma
A549 NSCLC = test system: A549 NSCLC
SF-539 CNS = test system: SF-539 CNS
SK-MEL-28 melanoma = test system: SK-MEL-28 melanoma
SK-MEL-5 melanoma = test system: SK-MEL-5 melanoma
TK-10 renal = test system: TK-10 renal
RPMI-8226 leukemia = test system: RPMI-8226 leukemia
DMS 114 small cell lung = test system: DMS 114 small cell lung
HCT-15 colon = test system: HCT-15 colon
HOP-18 NSCLC = test system: HOP-18 NSCLC
HL-60(TB) leukemia = test system: HL-60(TB) leukemia
COLO 205 colon = test system: COLO 205 colon
IGROV1 ovarian = test system: IGROV1 ovarian
SN12K1 renal = test system: SN12K1 renal
MCF7 breast = test system: MCF7 breast
NCI/ADR-RES ovarian = test system: NCI/ADR-RES ovarian
P388/ADR leukemia = test system: P388/ADR leukemia
P388 leukemia = test system: P388 leukemia

Structure (SMILES): CC(C)(C)OC(=O)NC1CCCC1=O (configuration not stated)
- TGI (NCI-H522 lung): > 100 µM
- TGI (OVCAR-4 ovarian): > 100 µM
- TGI (SK-OV-3 ovarian): > 100 µM
- TGI (CCRF-CEM leukemia): > 100 µM
- TGI (UACC-257 melanoma): > 100 µM
- TGI (LXFL 529 NSCLC): > 100 µM
- TGI (SF-295 CNS): > 100 µM
- TGI (ACHN renal): > 100 µM
- TGI (NCI-H226 lung): > 100 µM
- TGI (786-0 renal): > 100 µM
- TGI (RXF 393 renal): > 100 µM
- TGI (HCC-2998 colon): > 100 µM
- TGI (M19-MEL melanoma): > 100 µM
- TGI (OVCAR-8 ovarian): > 100 µM
- TGI (RXF-631 renal): > 100 µM
- TGI (XF 498 CNS): > 100 µM
- TGI (DLD-1 colon): > 100 µM
- TGI (HCT-116 colon): > 100 µM
- TGI (NCI-H460 lung): > 100 µM
- TGI (HT29 colon): > 100 µM
- TGI (UO-31 renal): > 100 µM
- TGI (SK-MEL-2 melanoma): > 100 µM
- TGI (SNB-75 CNS): > 100 µM
- TGI (U251 CNS): > 100 µM
- TGI (MALME-3M melanoma): > 100 µM
- TGI (CAKI-1 renal): > 100 µM
- TGI (KM20L2 colon): > 100 µM
- TGI (SN12C renal): > 100 µM
- TGI (HOP-62 NSCLC): > 100 µM
- TGI (NCI-H23 lung): > 100 µM
- TGI (SR leukemia): > 100 µM
- TGI (KM12 colon): > 100 µM
- TGI (SW-620 colon): > 100 µM
- TGI (DMS 273 small cell lung): > 100 µM
- TGI (SNB-19 CNS): > 100 µM
- TGI (OVCAR-3 ovarian): > 100 µM
- TGI (HOP-92 NSCLC): > 100 µM
- TGI (EKVX NSCLC): > 100 µM
- TGI (UACC-62 melanoma): > 100 µM
- TGI (OVCAR-5 ovarian): > 100 µM
- TGI (A498 renal): > 100 µM
- TGI (M14 melanoma): > 100 µM
- TGI (SNB-78 CNS): > 100 µM
- TGI (K-562 leukemia): > 100 µM
- TGI (MOLT-4 leukemia): > 100 µM
- TGI (SF-268 CNS): > 100 µM
- TGI (LOX IMVI melanoma): > 100 µM
- TGI (A549 NSCLC): > 100 µM
- TGI (SF-539 CNS): > 100 µM
- TGI (SK-MEL-28 melanoma): > 100 µM
- TGI (SK-MEL-5 melanoma): > 100 µM
- TGI (TK-10 renal): > 100 µM

Structure (SMILES): CCOC(OC1=C(C#N)CCCC1)C(CC)[Se]c1ccccc1 (configuration not stated)
- TGI (NCI-H522 lung): 29 µM
- TGI (OVCAR-4 ovarian): 43.2 µM
- TGI (SK-OV-3 ovarian): > 100 µM
- TGI (RPMI-8226 leukemia): 50.1 µM
- TGI (CCRF-CEM leukemia): 56.4 µM
- TGI (UACC-257 melanoma): > 100 µM
- TGI (LXFL 529 NSCLC): 65.9 µM
- TGI (SF-295 CNS): 98.7 µM
- TGI (ACHN renal): 95.5 µM
- TGI (DMS 114 small cell lung): 15.4 µM
- TGI (NCI-H226 lung): 49.6 µM
- TGI (786-0 renal): 31.6 µM
- TGI (RXF 393 renal): 31.1 µM
- TGI (HCC-2998 colon): > 100 µM
- TGI (M19-MEL melanoma): 48.7 µM
- TGI (OVCAR-8 ovarian): 34.7 µM
- TGI (RXF-631 renal): 26.2 µM
- TGI (XF 498 CNS): 46.5 µM
- TGI (DLD-1 colon): 34.4 µM
- TGI (HCT-116 colon): 28.6 µM
- TGI (NCI-H460 lung): 34.2 µM
- TGI (HT29 colon): 73.6 µM
- TGI (UO-31 renal): > 100 µM
- TGI (SK-MEL-2 melanoma): 80.8 µM
- TGI (SNB-75 CNS): 80.7 µM
- TGI (U251 CNS): 44.3 µM
- TGI (MALME-3M melanoma): > 100 µM
- TGI (CAKI-1 renal): > 100 µM
- TGI (KM20L2 colon): 62.1 µM
- TGI (SN12C renal): 36.9 µM
- TGI (HOP-62 NSCLC): > 100 µM
- TGI (NCI-H23 lung): 31.5 µM
- TGI (SR leukemia): 31 µM
- TGI (KM12 colon): > 100 µM
- TGI (DMS 273 small cell lung): 24.9 µM
- TGI (SNB-19 CNS): > 100 µM
- TGI (OVCAR-3 ovarian): 54.6 µM
- TGI (HOP-92 NSCLC): 61.3 µM
- TGI (EKVX NSCLC): 69.2 µM
- TGI (UACC-62 melanoma): 48 µM
- TGI (OVCAR-5 ovarian): 86.4 µM
- TGI (A498 renal): > 100 µM
- TGI (M14 melanoma): > 100 µM
- TGI (SNB-78 CNS): 89.7 µM
- TGI (K-562 leukemia): > 100 µM
- TGI (HCT-15 colon): 33 µM
- TGI (HOP-18 NSCLC): 54.1 µM
- TGI (MOLT-4 leukemia): 55.8 µM
- TGI (SF-268 CNS): 27.8 µM
- TGI (HL-60(TB) leukemia): 42.9 µM
- TGI (LOX IMVI melanoma): 21.9 µM
- TGI (COLO 205 colon): 40.6 µM
- TGI (A549 NSCLC): > 100 µM
- TGI (SF-539 CNS): 31.7 µM
- TGI (IGROV1 ovarian): 74.1 µM
- TGI (SK-MEL-28 melanoma): 61.8 µM
- TGI (SK-MEL-5 melanoma): 33.5 µM
- TGI (TK-10 renal): > 100 µM

Structure (SMILES): O=C(O)CCCCCCCCC(=O)O
- TGI (NCI-H522 lung): > 500 µM
- TGI (OVCAR-4 ovarian): > 500 µM
- TGI (SK-OV-3 ovarian): > 500 µM
- TGI (RPMI-8226 leukemia): > 500 µM
- TGI (CCRF-CEM leukemia): > 500 µM
- TGI (UACC-257 melanoma): > 500 µM
- TGI (SF-295 CNS): > 500 µM
- TGI (DMS 114 small cell lung): > 500 µM
- TGI (NCI-H226 lung): > 500 µM
- TGI (RXF 393 renal): > 500 µM
- TGI (HCC-2998 colon): > 500 µM
- TGI (M19-MEL melanoma): > 500 µM
- TGI (OVCAR-8 ovarian): > 500 µM
- TGI (XF 498 CNS): > 50 µM
- TGI (SN12K1 renal): > 500 µM
- TGI (DLD-1 colon): > 500 µM
- TGI (HCT-116 colon): > 500 µM
- TGI (NCI-H460 lung): > 500 µM
- TGI (HT29 colon): > 500 µM
- TGI (UO-31 renal): > 500 µM
- TGI (SK-MEL-2 melanoma): > 500 µM
- TGI (SNB-75 CNS): > 79.3 µM
- TGI (U251 CNS): > 500 µM
- TGI (MALME-3M melanoma): > 500 µM
- TGI (CAKI-1 renal): > 500 µM
- TGI (KM20L2 colon): > 500 µM
- TGI (SN12C renal): > 500 µM
- TGI (HOP-62 NSCLC): > 500 µM
- TGI (NCI-H23 lung): > 500 µM
- TGI (MCF7 breast): > 500 µM
- TGI (KM12 colon): > 500 µM
- TGI (SW-620 colon): > 500 µM
- TGI (DMS 273 small cell lung): > 500 µM
- TGI (SNB-19 CNS): > 79.3 µM
- TGI (OVCAR-3 ovarian): > 500 µM
- TGI (HOP-92 NSCLC): > 500 µM
- TGI (EKVX NSCLC): > 500 µM
- TGI (UACC-62 melanoma): > 500 µM
- TGI (OVCAR-5 ovarian): > 500 µM
- TGI (A498 renal): > 23.2 µM
- TGI (NCI/ADR-RES ovarian): > 500 µM
- TGI (SNB-78 CNS): > 500 µM
- TGI (K-562 leukemia): > 500 µM
- TGI (HCT-15 colon): > 500 µM
- TGI (HOP-18 NSCLC): > 500 µM
- TGI (MOLT-4 leukemia): > 500 µM
- TGI (SF-268 CNS): > 500 µM
- TGI (P388/ADR leukemia): > 500 µM
- TGI (P388 leukemia): > 281 µM
- TGI (HL-60(TB) leukemia): > 281 µM
- TGI (LOX IMVI melanoma): > 500 µM
- TGI (COLO 205 colon): > 500 µM
- TGI (A549 NSCLC): > 500 µM
- TGI (SF-539 CNS): > 79.3 µM
- TGI (IGROV1 ovarian): > 500 µM
- TGI (SK-MEL-28 melanoma): > 500 µM
- TGI (SK-MEL-5 melanoma): > 500 µM
